Row | Structure (SMILES) | melting point
1 | CC(=O)c1ccc(NS(C)(=O)=O)c(Sc2ccc(F)cc2F)c1 | 114 to 117 °C
2 | Cc1cc(-c2cnn3c(C(F)(F)F)cc(-c4ccc(C(F)(F)F)c(F)c4)nc23)ccn1 | 250 °C
3 | Cc1oc(-c2ccccc2)nc1CCc1nc(COc2ccccc2CC(=O)O)co1 | 109 to 110 °C
4 | Cc1nc(Cl)c2ccccc2c1CC(=O)O | 180 to 183 °C
5 | COc1cccc2c(=O)n3nc(C(=O)n4ccnc4)cc3[nH]c12 | 295 to 300 °C
6 | CC(=O)Oc1ccc2c(c1)COc1c-2cc(Br)c2cc(OC(C)=O)ccc12 | 192 to 194 °C
7 | COC(=O)C(=O)c1ccc(OCCOc2ccc(S(N)(=O)=O)cc2)cc1 | 136 to 137 °C
8 | Oc1ccc2nc(-c3cccc(Br)c3)oc2c1 | 248 °C
9 | CN1CCN(c2ccc3ccccc3n2)CC1 | 110 to 112 °C
10 | COc1ccc(-c2ccncc2)cc1-c1ccc2nonc2c1 | 187 to 192 °C
11 | COC(=O)c1ccc(CNC(=O)c2[nH]c(-c3ccoc3)cc2-c2ccc(O)cc2)cc1 | 223 to 224 °C
12 | N=C(NO)c1ccc(-c2ccc(-c3ccc(C(=N)NO)o3)cc2)cc1 | 229 to 230 °C
13 | COC(=O)NNC(=O)c1ccc(Cl)cc1 | 160 °C
14 | Cc1ccc(N2C(=O)C(O)=C(C(=O)c3ccc(C(C)C)cc3)C2c2ccc(Cn3ccnn3)cc2)nn1 (stereo not given) | 293 °C
15 | CCCCCCCCCCCCCCCCCC(=O)N[C@@H](C)C(=O)OC | 84 °C
16 | COc1ccc(-c2nn(CCCc3ccccc3)c(=O)cc2-c2ccncc2)cc1 | 67.7 to 68.3 °C
17 | COc1ccc2c3c1OC1C(=O)C(COS(=O)(=O)c4ccc(C)cc4)(COS(=O)(=O)c4ccc(C)cc4)CC4C(C2)N(C)CCC314 (stereo not given) | 150 to 153 °C

Continued, values first:

Row | melting point | Structure (SMILES)
18 | 39 to 41 °C | CCCCCCCC(O)C(C)(C)C(=O)O (stereo not given)
19 | 214 to 215 °C | CC(C)(C)CNC(=NC#N)Nc1cccnc1
20 | 147 to 149 °C | CC(=O)Nc1nnc2c3c(c(N4CCOCC4)nn12)CCCC3
21 | 93 to 94 °C | CC(C)Sc1cn(C)cc(-c2cccc(C(F)(F)F)c2)c1=O
22 | 80 °C | CC(C)N(C)C(=O)COc1cc(-c2ccccc2)nc2ccccc12
23 | 50 to 60 °C | CN(C)C[C@@H]1NCCC[C@H]1O (relative stereo)
24 | 126 to 127 °C | COC(=O)C(Cc1ccc(OCCc2nc(-c3ccccc3)oc2C)cc1)C(=O)O (stereo not given)
25 | 109 to 110 °C | CN(C)c1ccc([N+](=O)[O-])cc1C#N
26 | 104 to 106 °C | CC(C)(C)c1cc(-c2nn(CC(F)(F)F)c3ncccc23)cc(C(C)(C)C)c1O
27 | 72 to 73 °C | CN1OCCN(c2ccc(Cl)c(C(F)(F)F)c2)C1=O
28 | 172 to 173 °C | CC(=O)NC[C@H]1CN(c2cc(F)c(N3CCN(C(=O)COCc4ccccc4)CC3)c(F)c2)C(=O)O1
29 | 156 to 159 °C | COc1ccc(N2CCN(c3c(C)c4c(c(C(C)=O)c3C)OC(C)(C)C4)CC2)cc1
30 | 244 to 245 °C | O=[N+]([O-])c1cc2c(c([N+](=O)[O-])c1)NCC2
31 | 133 to 135 °C | Cc1ccc(S(=O)(=O)NCCc2ccc(C(=O)CN3CCN(c4ccncc4)CC3)cc2)cc1
32 | 131 to 132 °C | C=CC(c1ccccc1)c1cc(C)c2c(c1O)C(=O)CC2 (stereo not given)
33 | 225 to 228 °C | COc1ccccc1C(c1ccnc2ccccc12)C(C#N)(Cc1cccnc1)C(=O)OC(C)(C)C (stereo not given)
34 | 168 to 171 °C | COc1ccnc(Cl)c1C#N
35 | 225 to 226 °C | O=C(c1ccccc1Cl)c1cc2c(cc1NC=C[N+](=O)[O-])CCC2
36 | 114 to 117 °C | COc1ccc(C2CNC(=O)O2)cc1OC (stereo not given)
37 | 120 to 122 °C | COc1ccc(-n2nc(N(C)C)cc2-c2ccc(OCCO)cc2)cc1
38 | 133 to 135 °C | CCOC(=O)c1cc(O)ccc1CCc1cc2cc(C#N)ccc2o1
39 | 97 to 98 °C | CC(=O)c1ccc(Cc2c(Cl)cc(N)cc2Cl)cc1
40 | 128 to 132 °C | CCC(C)(CC)NC(=S)Nc1cc(Cl)cc(Cl)c1
